The target of the test is BRD4 (Homo sapiens, UniProt O60885). In words: Time Resolved Fluorescence Resonance Energy Transfer (TR-FRET) binding assay, BRD4. Conditions: one of the FRET assays described; read-out: FRET BRD4 IC50.

As for `[2H]C([2H])([2H])c1nnn(C)c1-c1cnc2c3c(N)ccc(S(C)(=O)=O)c3n([C@H](c3ccccc3)C3CCOCC3)c2c1` [Example 227, 6-Methanesulfonyl-3-[4-(^2H3)methyl-1-methyl-1H-1,2,3-triazol-5-yl]-5-[(S)-oxan-4-yl(phenyl)methyl]-5H-pyrido[3,2-b]indol-9-amine], the IC50 was less than 5 nM.

Take `Cc1noc(C)c1-c1cnc2c3ccc(C(C)(C)O)cc3n(C(c3ccccc3)c3cscn3)c2c1` (single isomer, unassigned) [Example 30, 2-[3-(Dimethyl-1,2-oxazol-4-yl)-5-[phenyl(1,3-thiazol-4-yl)methyl]-5H-pyrido[3,2-b]indol-7-yl]propan-2-ol]: the IC50 is less than 5 nM. With `[2H]C([2H])([2H])c1nnn(C)c1-c1cnc2c3c(OC)cc(S(C)(=O)=O)cc3n(C(c3ncccc3F)C3CCOCC3)c2c1` (stereo not drawn) [Example 208, 3-Fluoro-2-[{7-methanesulfonyl-9-methoxy-3-[4-(^2H3)methyl-1-methyl-1H-1,2,3-triazol-5-yl]-5H-pyrido[3,2-b]indol-5-yl}(oxan-4-yl)methyl]pyridine] the figure was less than 5 nM. `Cc1noc(C)c1-c1cnc2c3ccc(C(C)(C)O)cc3n([C@H](CCC(F)(F)F)c3ccccc3Cl)c2c1` [Example 87]: the IC50 was less than 1500 nM. Under `CCC(CC)n1c2cc(C(C)(C)O)ccc2c2ncc(-c3c(C)noc3C)cc21` [Example 4] stands less than 25 nM; under `[2H]C([2H])([2H])Oc1nnn(C)c1-c1cnc2c3ccc(NC(=O)OC(C)C)cc3n([C@H](c3ccccc3)C3CCOCC3)c2c1` [Example 392, Propan-2-yl N-{3-[4-(^2H3)methoxy-1-methyl-1H-1,2,3-triazol-5-yl]-5-[(S)-oxan-4-yl(phenyl)methyl]-5H-pyrido[3,2-b]indol-7-yl}carbamate], less than 5 nM. Under `[2H]C([2H])([2H])c1nnn(C)c1-c1cnc2c3c(OCC(F)F)ccc(S(C)(=O)=O)c3n([C@H](c3ccccc3)C3CCOCC3)c2c1` [Example 229, 5-[9-(2,2-Difluoroethoxy)-6-methanesulfonyl-5-[(S)-oxan-4-yl(phenyl)methyl]-5H-pyrido[3,2-b]indol-3-yl]-4-(^2H3)methyl-1-methyl-1H-1,2,3-triazole] stands less than 5 nM; under `[2H]C([2H])([2H])c1nnn(C)c1-c1cnc2c3c(F)cc(S(C)(=O)=O)cc3n(C(c3ccccc3)C3CCC(F)(F)CC3)c2c1` (single isomer, unassigned) [Example 200, 5-{5-[(4,4-Difluorocyclohexyl)(phenyl)methyl]-9-fluoro-7-methanesulfonyl-5H-pyrido[3,2-b]indol-3-yl}-4-(^2H3)methyl-1-methyl-1H-1,2,3-triazole], less than 5 nM. With `[2H]C([2H])([2H])c1nnn(C)c1-c1cnc2c3c(OCC)cc(S(C)(=O)=O)cc3n(C(c3ccccc3)C3CCC(F)(F)CC3)c2c1` [Example 210, 5-{5-[(S)-(4,4-Difluorocyclohexyl)(phenyl)methyl]-9-ethoxy-7-methanesulfonyl-5H-pyrido[3,2-b]indol-3-yl}-4-(^2H3)methyl-1-methyl-1H-1,2,3-triazole] the figure was less than 5 nM. `[2H]C([2H])([2H])c1nnn(C)c1-c1cnc2c3c(S(C)(=O)=O)cc(F)c(OC)c3n([C@H](c3ccccc3)C3CCOCC3)c2c1` [Example 163, 5-{7-Fluoro-9-methanesulfonyl-6-methoxy-5-[(S)-oxan-4-yl(phenyl)methyl]-5H-pyrido[3,2-b]indol-3-yl}-4-(^2H3)methyl-1-methyl-1H-1,2,3-triazole]: the IC50 is less than 5 nM. As for `CCOc1nnn(C)c1-c1cnc2c3ccc(C(C)(C)O)cc3n([C@H](c3ccccc3)C3CCOCC3)c2c1` [Example 382, 2-[3-(4-Ethoxy-1-methyl-1H-1,2,3-triazol-5-yl)-5-[(S)-oxan-4-yl(phenyl)methyl]-5H-pyrido[3,2-b]indol-7-yl]propan-2-ol], the IC50 is less than 5 nM. In the case of `[2H]C([2H])([2H])c1nnn(C)c1-c1cnc2c3ccc(S(C)(=O)=O)cc3n(C(c3ccccc3)C3CCC(F)(F)CC3)c2c1` (stereo not drawn) [Example 158, 5-{5-[(4,4-Difluorocyclohexyl)(phenyl)methyl]-7-methanesulfonyl-5H-pyrido[3,2-b]indol-3-yl}-4-(^2H3)methyl-1-methyl-1H-1,2,3-triazole], the IC50 was less than 5 nM.

Consider `Cc1nnn(C)c1-c1cnc2c3ccc(C(C)(C)N)cc3n(C(c3ccccc3)C3CCOCC3)c2c1` (single isomer, unassigned) [Example 166, 2-[3-(Dimethyl-1H-1,2,3-triazol-5-yl)-5-[oxan-4-yl(phenyl)methyl]-5H-pyrido[3,2-b]indol-7-yl]propan-2-amine], for which the IC50 is less than 5 nM.

Take `[2H]C([2H])([2H])c1nnn(C)c1-c1cnc2c3c(S(C)(=O)=O)cc(OC)c(OC)c3n([C@H](c3ccccc3)C3CCOCC3)c2c1` [Example 162, 5-{9-Methanesulfonyl-6,7-dimethoxy-5-[(S)-oxan-4-yl(phenyl)methyl]-5H-pyrido[3,2-b]indol-3-yl}-4-(^2H3)methyl-1-methyl-1H-1,2,3-triazole]: the IC50 was less than 5 nM.

For the compound `Cc1noc(C)c1-c1cnc2c3ccc(CC(C)(C)O)cc3n([C@H](c3ccccc3)C3CCOCC3)c2c1` [Example 252, 1-[3-(Dimethyl-1,2-oxazol-4-yl)-5-[(S)-oxan-4-yl(phenyl)methyl]-5H-pyrido[3,2-b]indol-7-yl]-2-methylpropan-2-ol], the IC50 was less than 5 nM.

For `Cc1nnn(C)c1-c1cnc2c3ccc(C(C)(C)O)cc3n(C(c3ccccc3)C3CCC(F)(F)CC3)c2c1` (single isomer, unassigned) [Example 206], the IC50 is less than 5 nM. As for `Cc1nnn(C)c1-c1cnc2c3c(F)cc(C(C)(C)O)cc3n(C(c3cc(F)ccc3F)C3CCOCC3)c2c1` (single isomer, unassigned) [Example 106, 2-{5-[(2,5-Difluorophenyl)(oxan-4-yl)methyl]-3-(dimethyl-1H-1,2,3-triazol-5-yl)-9-fluoro-5H-pyrido[3,2-b]indol-7-yl}propan-2-ol], the IC50 was less than 5 nM. With `Cc1nnn(C)c1-c1cnc2c3cc(F)c(C(C)(O)C4CC4)c(F)c3n([C@H](c3ccccc3)C3CCOCC3)c2c1` (single isomer, unassigned) [Example 449] the figure was less than 5 nM; with `Cc1cc(C(C2CCOCC2)n2c3cc(-c4c(C)nnn4C)cnc3c3ccc(C(C)(C)O)c(F)c32)no1` (single isomer, unassigned) [Example 290], less than 5 nM; with `Cc1nnn(C)c1-c1cnc2c3ccc(C(C)(C)O)cc3n(C(c3cccc(F)c3F)C3CCOCC3)c2c1` (single isomer, unassigned) [Example 94, 2-{5-[(2,3-Difluorophenyl)(oxan-4-yl)methyl]-3-(dimethyl-1H-1,2,3-triazol-5-yl)-5H-pyrido[3,2-b]indol-7-yl}propan-2-ol], less than 5 nM. With `[2H]C([2H])([2H])c1nnn(C)c1-c1cnc2c3c(OC)ccc(S(C)(=O)=O)c3n([C@H](c3ccc(F)cc3)C3CCOCC3)c2c1` [Example 191, 5-{5-[(S)-(4-Fluorophenyl)(oxan-4-yl)methyl]-6-methanesulfonyl-9-methoxy-5H-pyrido[3,2-b]indol-3-yl}-4-(^2H3)methyl-1-methyl-1H-1,2,3-triazole] the figure was less than 5 nM. With `Cc1nnn(C)c1-c1cnc2c3ccc(C(C)(C)N)cc3n(C(c3ccccc3)C3CCOCC3)c2c1` (single isomer, unassigned) [Example 165, 2-[3-(Dimethyl-1H-1,2,3-triazol-5-yl)-5-[oxan-4-yl(phenyl)methyl]-5H-pyrido[3,2-b]indol-7-yl]propan-2-amine] the figure was less than 5 nM. For `[2H]C([2H])([2H])c1nnn(C)c1-c1cnc2c3c(OC)cc(C(C)(C)O)cc3n(C(c3ccncc3F)C3CCOCC3)c2c1` (stereo not drawn) [Example 348, 2-{5-[(3-Fluoropyridin-4-yl)(oxan-4-yl)methyl]-9-methoxy-3-[4-(^2H3)methyl-1-methyl-1H-1,2,3-triazol-5-yl]-5H-pyrido[3,2-b]indol-7-yl}propan-2-ol], the IC50 was less than 5 nM. Under `[2H]C([2H])([2H])c1nnn(C)c1-c1cnc2c3c(NCCCC(=O)O)ccc(S(C)(=O)=O)c3n([C@H](c3ccccc3)C3CCOCC3)c2c1` [Example 225, 4-({6-Methanesulfonyl-3-[4-(^2H3)methyl-1-methyl-1H-1,2,3-triazol-5-yl]-5-[(S)-oxan-4-yl(phenyl)methyl]-5H-pyrido[3,2-b]indol-9-yl}amino)butanoic acid] stands less than 25 nM.

With `Cc1nnn(C)c1-c1cnc2c3ccc(CC(C)(C)O)cc3n([C@H](c3ccccc3)C3CCOCC3)c2c1` [Example 261, 1-[3-(Dimethyl-1H-1,2,3-triazol-5-yl)-5-[(S)-oxan-4-yl(phenyl)methyl]-5H-pyrido[3,2-b]indol-7-yl]-2-methylpropan-2-ol], the IC50 is less than 5 nM. `Cc1nnn(C)c1-c1cnc2c3cc(C(C)(C)O)ccc3n([C@H](c3ccc(F)cc3)C3CCOCC3)c2c1` [Example 176, 2-[3-(Dimethyl-1H-1,2,3-triazol-5-yl)-5-[(S)-(4-fluorophenyl)(oxan-4-yl)methyl]-5H-pyrido[3,2-b]indol-8-yl]propan-2-ol]: the IC50 is less than 5 nM.

With `Cc1noc(C)c1-c1cnc2c3ccc(S(C)(=O)=O)cc3n([C@@H](c3ccccc3F)C3CCOCC3)c2c1` [Example 174], the IC50 is less than 5 nM.

As to `Cc1nnn(C)c1-c1cnc2c3ccc([C@](C)(O)C4CC4)c(F)c3n([C@H](c3ccccc3)C3CCOCC3)c2c1` [Example 434, (1R)-1-cyclopropyl-1-{6-fluoro-3-[4-(^2H3)methyl-1-methyl-1H-1,2,3-triazol-5-yl]-5-[(S)-oxan-4-yl(phenyl)methyl]-5H-pyrido[3,2-b]indol-7-yl}ethan-1-ol], the half-inhibitory concentration (IC50) is less than 5 nM. With `[2H]C([2H])([2H])c1nnn(C)c1-c1cnc2c3c(OC)cc(C(C)(C)O)cc3n([C@H](c3ccccc3)C3CCOCC3)c2c1` [Example 273, 2-{9-Methoxy-3-[4-(^2H3)methyl-1-methyl-1H-1,2,3-triazol-5-yl]-5-[(S)-oxan-4-yl(phenyl)methyl]-5H-pyrido[3,2-b]indol-7-yl}propan-2-ol], the IC50 is less than 5 nM. Take `Cc1cc(C(C2CCOCC2)n2c3cc(C(C)(C)O)ccc3c3ncc(-c4c(C)noc4C)cc32)no1` (single isomer, unassigned) [Example 307]: the IC50 was less than 25 nM.

The values are drawn from patent US10112941B2, “Tricyclic compounds as anticancer agents” (BRISTOL-MYERS SQUIBB COMPANY, priority 2013, dated 2018).
